These results are taken from US8748421B2, “Triazine compounds as P13 kinase and MTOR inhibitors” (Wyeth LLC, priority 2009, dated 2014).

One assay addresses human SMG-1 (hSMG-1) (Homo sapiens, UniProt Q96Q15). The assay can be described thus: hSMG-1 kinase assay (DELFIA). It counts as biochemical.
The test system of assay [1] is human prostate LNCap tumor cell line. The assay is described as follows: In vitro cell culture growth assay (MTS), LNCap. The following applies: 72 h, read-out: IC50 LNCap.
The test system of assay [2] is human breast MDA-MB-361 tumor cell line. The assay can be described thus: In vitro cell culture growth assay (MTS), MDA-MB-361. It counts as cell-based. The following applies: 72 h, human breast MDA-MB-361 cells, three days after drug treatment.
Assay [3] deals with human prostate PC3-mm2 tumor cell line. The assay is described as follows: In vitro cell culture growth assay (MTS), PC3-mm2. Particulars: PC3MM2, 72 h, human prostate PC3-mm2 cells, three days after drug treatment. It counts as cell-based.
Assay [4] has as its system human tumor xenograft models. The following applies: chronic oral administration, 400 mg/kg; A549, PC-3, WiDr; cited from earlier work.
The subject of assay [5] is acute lymphoblastic leukemia xenograft. Particulars: NOS/SCID mouse; cited from earlier work.
The target in a further assay is PI3K-alpha (Homo sapiens, UniProt P42336). The assay can be described thus: PI3K-alpha fluorescence polarization assay. Particulars: read-out: IC50 PI3Kα.
The target in a further assay is PI3K-gamma (Homo sapiens, UniProt P48736). The assay is described as follows: PI3K-gamma fluorescence polarization assay. The following applies: read-out: IC50 PI3Kγ.

pIC50: −log10 of the molar value.

Sequence of PI3K-alpha (P42336 whole entry, species assumed): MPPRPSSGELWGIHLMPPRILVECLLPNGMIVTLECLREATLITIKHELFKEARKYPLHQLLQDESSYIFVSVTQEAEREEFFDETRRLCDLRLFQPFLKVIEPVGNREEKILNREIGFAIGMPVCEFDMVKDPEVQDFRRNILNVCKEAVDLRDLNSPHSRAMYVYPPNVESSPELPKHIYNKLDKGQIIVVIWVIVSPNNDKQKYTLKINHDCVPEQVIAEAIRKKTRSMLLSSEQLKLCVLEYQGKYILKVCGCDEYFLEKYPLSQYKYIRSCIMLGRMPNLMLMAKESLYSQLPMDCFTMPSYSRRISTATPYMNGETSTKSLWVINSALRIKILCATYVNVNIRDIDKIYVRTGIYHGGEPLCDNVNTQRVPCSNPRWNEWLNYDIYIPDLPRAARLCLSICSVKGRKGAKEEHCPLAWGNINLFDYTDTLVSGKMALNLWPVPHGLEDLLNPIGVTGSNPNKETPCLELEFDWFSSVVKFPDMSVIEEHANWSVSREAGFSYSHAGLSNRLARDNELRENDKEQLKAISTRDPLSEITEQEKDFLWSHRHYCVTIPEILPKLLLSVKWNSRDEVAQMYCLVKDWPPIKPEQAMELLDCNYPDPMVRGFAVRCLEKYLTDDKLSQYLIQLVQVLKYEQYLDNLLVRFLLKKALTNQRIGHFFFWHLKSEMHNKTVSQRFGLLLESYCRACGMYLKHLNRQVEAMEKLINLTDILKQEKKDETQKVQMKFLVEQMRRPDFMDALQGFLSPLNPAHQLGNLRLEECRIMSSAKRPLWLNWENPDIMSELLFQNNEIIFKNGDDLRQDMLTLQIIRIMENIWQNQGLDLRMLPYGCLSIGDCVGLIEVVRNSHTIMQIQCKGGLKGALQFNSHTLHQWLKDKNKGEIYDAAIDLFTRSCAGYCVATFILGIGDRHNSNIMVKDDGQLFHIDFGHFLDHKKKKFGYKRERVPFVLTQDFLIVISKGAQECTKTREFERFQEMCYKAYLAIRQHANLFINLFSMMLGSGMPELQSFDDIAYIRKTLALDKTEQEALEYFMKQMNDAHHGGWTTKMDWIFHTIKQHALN
Sequence of PI3K-alpha (P27986 whole entry partner, species assumed): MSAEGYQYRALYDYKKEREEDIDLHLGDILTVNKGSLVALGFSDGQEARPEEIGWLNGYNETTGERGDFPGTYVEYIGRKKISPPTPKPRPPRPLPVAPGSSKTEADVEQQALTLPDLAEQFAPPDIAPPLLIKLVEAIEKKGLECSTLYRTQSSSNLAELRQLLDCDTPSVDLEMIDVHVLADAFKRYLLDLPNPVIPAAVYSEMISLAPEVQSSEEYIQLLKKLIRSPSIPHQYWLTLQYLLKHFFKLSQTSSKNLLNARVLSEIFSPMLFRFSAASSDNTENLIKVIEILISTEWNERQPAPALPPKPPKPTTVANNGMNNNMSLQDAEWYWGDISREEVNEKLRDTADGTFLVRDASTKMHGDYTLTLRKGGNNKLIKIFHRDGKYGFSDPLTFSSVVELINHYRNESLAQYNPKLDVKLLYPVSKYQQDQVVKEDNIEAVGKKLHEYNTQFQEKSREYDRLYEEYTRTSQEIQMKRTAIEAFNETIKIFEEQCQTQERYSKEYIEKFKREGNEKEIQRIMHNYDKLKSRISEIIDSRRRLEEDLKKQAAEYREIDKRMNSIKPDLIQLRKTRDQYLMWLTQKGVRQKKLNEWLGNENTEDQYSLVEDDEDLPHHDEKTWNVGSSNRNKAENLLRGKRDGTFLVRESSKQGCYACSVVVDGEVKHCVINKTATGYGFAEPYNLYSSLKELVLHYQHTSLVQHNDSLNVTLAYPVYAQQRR
Sequence of PI3K-gamma (P48736 whole entry, species assumed): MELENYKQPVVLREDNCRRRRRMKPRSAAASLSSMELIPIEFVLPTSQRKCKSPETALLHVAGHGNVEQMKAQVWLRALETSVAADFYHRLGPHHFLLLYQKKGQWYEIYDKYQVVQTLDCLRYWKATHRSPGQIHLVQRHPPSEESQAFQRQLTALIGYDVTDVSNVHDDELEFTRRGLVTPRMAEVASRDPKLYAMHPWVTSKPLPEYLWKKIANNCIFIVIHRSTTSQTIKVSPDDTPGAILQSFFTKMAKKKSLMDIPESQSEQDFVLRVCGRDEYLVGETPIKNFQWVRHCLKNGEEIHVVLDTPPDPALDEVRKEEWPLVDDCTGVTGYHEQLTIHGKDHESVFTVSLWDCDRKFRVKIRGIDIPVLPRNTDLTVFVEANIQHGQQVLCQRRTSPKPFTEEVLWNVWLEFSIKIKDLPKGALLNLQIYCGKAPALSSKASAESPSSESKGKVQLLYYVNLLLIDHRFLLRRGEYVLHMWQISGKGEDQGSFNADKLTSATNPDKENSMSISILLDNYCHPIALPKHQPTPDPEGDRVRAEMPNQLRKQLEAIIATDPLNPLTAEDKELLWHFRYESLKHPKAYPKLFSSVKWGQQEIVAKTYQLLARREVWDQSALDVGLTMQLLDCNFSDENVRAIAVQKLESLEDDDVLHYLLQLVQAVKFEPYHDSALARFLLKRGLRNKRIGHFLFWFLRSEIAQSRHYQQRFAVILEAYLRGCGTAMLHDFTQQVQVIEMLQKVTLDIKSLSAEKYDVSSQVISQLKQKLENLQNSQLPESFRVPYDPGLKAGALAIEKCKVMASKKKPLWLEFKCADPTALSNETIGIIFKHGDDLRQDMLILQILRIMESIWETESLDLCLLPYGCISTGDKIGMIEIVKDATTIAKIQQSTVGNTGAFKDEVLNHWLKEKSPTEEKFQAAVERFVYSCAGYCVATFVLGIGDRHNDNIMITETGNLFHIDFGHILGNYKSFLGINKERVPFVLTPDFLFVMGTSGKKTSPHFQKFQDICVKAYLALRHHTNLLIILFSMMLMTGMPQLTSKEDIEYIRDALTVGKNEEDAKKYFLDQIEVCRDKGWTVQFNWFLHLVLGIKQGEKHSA

Take `CNC(=O)Nc1ccc(-c2nc(-c3ccc(NC(=O)Nc4ccc(C(N)=O)cc4)cc3)nc(N3CCOCC3)n2)cc1` [Example 462, 4-({[4-(4-{4-[(methylcarbamoyl)amino]phenyl}-6-morpholin-4-yl-1,3,5-triazin-2-yl)phenyl]carbamoyl}amino)benzamide]: the negative-log IC50 (pIC50) at human SMG-1 (hSMG-1) is 9.00. As for `CNC(=O)Nc1ccc(-c2nc(-c3ccc(NC(=O)Nc4cccc(C(N)=O)c4)cc3)nc(N3CCOCC3)n2)cc1` [Example 466, 3-({[4-(4-{4-[(methylcarbamoyl)amino]phenyl}-6-morpholin-4-yl-1,3,5-triazin-2-yl)phenyl]carbamoyl}amino)benzamide], the negative-log IC50 (pIC50) in assay [1] was 6.38. Regarding `CN(C)CCNC(=O)c1ccc(NC(=O)Nc2ccc(-c3nc(N4CCCCC4)nc(N4CCOCC4)n3)cc2)cc1` [Example 601, N-[2-(dimethylamino)ethyl]-4-({[4-(4-morpholin-4-yl-6-piperidin-1-yl-1,3,5-triazin-2-yl)phenyl]carbamoyl}amino)benzamide], the negative-log IC50 (pIC50) in assay [2] is 7.66; in assay [3], 6.81. In the case of `FC(F)c1nc2ccccc2n1-c1nc(N2CCOCC2)nc(N2CCOCC2)n1` [ZSTK474, 2-(2-difluoromethylbenzoimidazol-1-yl)-4,6-dimorpholino-1,3,5-triazine], the “tumor growth inhibition in mouse human xenograft cancer models” value in assay [4] is “completely inhibited growth”. On to `CO[C@H]1C[C@@H]2CC[C@@H](C)[C@@](O)(O2)C(=O)C(=O)N2CCCC[C@H]2C(=O)O[C@H]([C@H](C)C[C@@H]2CC[C@@H](OC(=O)C(C)(CO)CO)[C@H](OC)C2)CC(=O)[C@H](C)/C=C(\C)[C@@H](O)[C@@H](OC)C(=O)[C@H](C)C[C@H](C)/C=C/C=C/C=C/1C` [Torisel], for which the “activity in xenograft mouse model of acute lymphoblastic leukemia” value in assay [5] was “active”. As for `CN1CCN(C(=O)c2ccc(NC(=O)Nc3ccc(-c4nc(N5CCOCC5)nc(N5CCOCC5)n4)cc3)cc2)CC1(C)C` [Example 848, 1-{4-[4,6-di(morpholin-4-yl)-1,3,5-triazin-2-yl]phenyl}-3-{4-[(3,3,4-trimethylpiperazin-1-yl)carbonyl]phenyl}urea], the pIC50 on PI3K-alpha is 8.98; at PI3K-gamma, 8.22.

For `CC(C)N1CCCN(c2nc(-c3ccc(NC(=O)Nc4ccc(C(=O)N5CC[C@@H](N(C)C)C5)cc4)cc3)nc(N3CCOCC3)n2)CC1` [Example 847, 1-(4-{[(3R)-3-(dimethylamino)pyrrolidin-1-yl]carbonyl}phenyl)-3-(4-{4-(morpholin-4-yl)-6-[4-(propan-2-yl)-1,4-diazepan-1-yl]-1,3,5-triazin-2-yl}phenyl)urea], the negative-log IC50 (pIC50) was 7.98 on PI3K-alpha and 7.06 at PI3K-gamma. In the case of `CN(C)[C@@H]1CCN(C(=O)c2ccc(NC(=O)Nc3ccc(-c4nc(C5CCOCC5)nc(N5CCOCC5)n4)cc3)cc2)C1` [Example 868, 1-(4-{[(3R)-3-(dimethylamino)pyrrolidin-1-yl]carbonyl}phenyl)-3-{4-[4-morpholin-4-yl-6-(tetrahydro-2H-pyran-4-yl)-1,3,5-triazin-2-yl]phenyl}urea], the pIC50 is 9.19 on PI3K-alpha and 8.35 on PI3K-gamma.
